In patent publication US20200399262A1, “COMPOUNDS FOR INHIBITING PROTEIN DEGRADATION AND METHODS OF USE THEREOF IN THE TREATMENT OF CANCER” (PI Therapeutics Ltd, priority 2018, published 2020):

Experiments:
Test in all cases: Cell viability panel, ATPlite 1Step
Type in all cases: cell-based
786-O = details: Homo sapiens, 786-0, Renal cell carcinoma, 72 h exposure, read-out: Compound EC50
Method: (§1) Cell viability panel studies. Cells were diluted in the corresponding ATCC recommended medium and dispensed in a 384-well plate, depending on the cell line used, at a density of 200-6400 cells per well. For each used cell line, the optimal cell density was used. Compound was serially diluted and 8 concentration (0.04-32 μM) were added to the cells for 72 h exposure. At t=end, of ATPlite 1Step™ (PerkinElmer) were used to calculate cell viability. Cell lines marked with asterisk were seeded 24 h prior to treatment in 96-well plates at the density range of 5,000-40,000 cells/well, according to duplication rate, in RPMI 1640 medium containing 10% fetal bovine serum and 2 mM L-glutamine. Compounds were diluted from 10 mM DMSO stock and treatment was applied at the range of 0.04-1 μM. Following incubation at 37° C. for 48 hours with increasing concentrations of the compounds, viability was determined with CyQUANT® Direct Assay Kit (Invitrogen). Output intensities were normalized to values after treatment with DMSO alone, and EC50 values were calculated using the absorbance measurements [time zero, (Tz), growth control, (C), plus the test growth at the four drug concentration levels (Ti)] as follows: [(Ti−Tz)/(C−Tz)]×100 for concentrations for which Ti>/=Tz; [(Ti−Tz)/Tz]×100 for concentrations for which Ti−<Tz.

A388 = details: Squamous cell carcinoma, 72 h exposure, read-out: Compound EC50
Method: as §1

AN3 CA = details: Homo sapiens, Endometrial adenocarcinoma, 72 h exposure, read-out: Compound EC50
Method: as §1

AsPC-1 = details: Homo sapiens, ASPC1, Pancreatic ductal adenocarcinoma, 72 h exposure, read-out: Compound EC50
Method: as §1

BT-549 = details: Homo sapiens, Invasive ductal carcinoma, 72 h exposure, read-out: Compound EC50
Method: as §1

DB = details: Homo sapiens, Diffuse large B-cell lymphoma, 72 h exposure, read-out: Compound EC50
Method: as §1

DU4475 = details: Homo sapiens, DU-4475, Breast carcinoma, 72 h exposure, read-out: Compound EC50
Method: as §1

ES-2 = details: Homo sapiens, Ovarian clear cell adenocarcinoma, 72 h exposure, read-out: Compound EC50
Method: as §1

HCT-15 = details: Homo sapiens, Colon adenocarcinoma, 72 h exposure, read-out: Compound EC50
Method: as §1

HT = details: Homo sapiens, Diffuse large B-cell lymphoma, 72 h exposure, read-out: Compound EC50
Method: as §1

Hs 746T = details: Homo sapiens, Hs746T, Gastric adenocarcinoma, 72 h exposure, read-out: Compound EC50
Method: as §1

HuTu 80 = details: Homo sapiens, HuTu80, Duodenal adenocarcinoma, 72 h exposure, read-out: Compound EC50
Method: as §1

LNCaP FGC = details: Homo sapiens, Prostate carcinoma, 72 h exposure, read-out: Compound EC50
Method: as §1

LoVo = details: Homo sapiens, Colon adenocarcinoma, 72 h exposure, read-out: Compound EC50
Method: as §1

MCF7 = details: Homo sapiens, Invasive ductal carcinoma, 72 h exposure, read-out: Compound EC50
Method: as §1

NCI-H460 = details: Homo sapiens, Large cell lung carcinoma, 72 h exposure, read-out: Compound EC50
Method: as §1

RL95-2 = details: Homo sapiens, Endometrial adenosquamous carcinoma, 72 h exposure, read-out: Compound EC50
Method: as §1

RPMI-7951 = details: Homo sapiens, Melanoma, 72 h exposure, read-out: Compound EC50
Method: as §1

RS4-11 = details: Homo sapiens, B acute lymphoblastic leukemia, 72 h exposure, read-out: Compound EC50
Method: as §1

SJCRH30 = details: Alveolar rhabdomyosarcoma, 72 h exposure, read-out: Compound EC50
Method: as §1

SK-N-AS = details: Homo sapiens, Neuroblastoma, 72 h exposure, read-out: Compound EC50
Method: as §1

SNU-5 = details: Homo sapiens, Gastric carcinoma, 72 h exposure, read-out: Compound EC50
Method: as §1

SNU-C2B = details: Homo sapiens, Cecum adenocarcinoma, 72 h exposure, read-out: Compound EC50
Method: as §1

SR = details: Homo sapiens, Anaplastic large cell lymphoma, 72 h exposure, read-out: Compound EC50
Method: as §1

SW620 = details: Homo sapiens, SW-620, Colon adenocarcinoma, 72 h exposure, read-out: Compound EC50
Method: as §1

SW900 = details: Homo sapiens, Squamous cell lung carcinoma, 72 h exposure, read-out: Compound EC50
Method: as §1

SW982 = details: Homo sapiens, Biphasic synovial sarcoma, 72 h exposure, read-out: Compound EC50
Method: as §1

T98G = details: Homo sapiens, Glioblastoma, 72 h exposure, read-out: Compound EC50
Method: as §1

TCCSUP = details: Homo sapiens, TCC-SUP, Bladder carcinoma, 72 h exposure, read-out: Compound EC50
Method: as §1

Structure (SMILES): CN(C)CCCS(=O)(=O)N1C/C(=C\c2ccc(C#N)cc2)C(=O)/C(=C/c2ccc(C#N)cc2)C1 [Compound AA]
- EC50 (786-O): < 0.3 µM
- EC50 (A388): < 0.3 µM
- EC50 (AN3 CA): < 0.3 µM
- EC50 (AsPC-1): 0.3 to 1 µM
- EC50 (BT-549): < 0.3 µM
- EC50 (DB): < 0.3 µM
- EC50 (DU4475): 0.3 to 1 µM
- EC50 (ES-2): < 0.3 µM
- EC50 (HCT-15): 0.3 to 1 µM
- EC50 (HT): < 0.3 µM
- EC50 (Hs 746T): < 0.3 µM
- EC50 (HuTu 80): < 0.3 µM
- EC50 (LNCaP FGC): 0.3 to 1 µM
- EC50 (LoVo): < 0.3 µM
- EC50 (MCF7): ≥ 1 µM
- EC50 (NCI-H460): < 0.3 µM
- EC50 (RL95-2): < 0.3 µM
- EC50 (RPMI-7951): < 0.3 µM
- EC50 (RS4-11): < 0.3 µM
- EC50 (SJCRH30): < 0.3 µM
- EC50 (SK-N-AS): < 0.3 µM
- EC50 (SNU-5): 0.3 to 1 µM
- EC50 (SNU-C2B): 0.3 to 1 µM
- EC50 (SR): < 0.3 µM
- EC50 (SW620): < 0.3 µM
- EC50 (SW900): 0.3 to 1 µM
- EC50 (SW982): < 0.3 µM
- EC50 (T98G): 0.3 to 1 µM
- EC50 (TCCSUP): < 0.3 µM
